Measurements taken from paper PMC5597618, “Identification and characterization of the novel reversible and selective cathepsin X inhibitors” (Scientific Reports, 2017).

Key:
[1] = biological target: T1, Cathepsin B (endopeptidase a.) (Homo sapiens, UniProt P07858); assay: Ki against cathepsin B endopeptidase activity (Z-RR-AMC); assay type: biochemical; conditions: SigmaPlot at 3 different substrate concentrations; pH 6.0
T1 construct: made in house; host or cells: E. coli
Method: (§1) Recombinant or native human cathepsins were used: recombinant cathepsin X and cathepsin S were expressed in Pichia pastoris, recombinant cathepsins B and L in E. coli, [43], native cathepsin H was isolated from human liver. Assay buffers for determining activities of cathepsins X and L consisted of 100 mM sodium acetate buffer, pH 5.5, for cathepsins H, S and B (endopeptidase activity) of 100 mM phosphate buffer pH 6.8, 6.5 and 6.0, respectively and for cathepsin B (exopeptidase activity) of 60 mM acetate buffer pH 5.0. Each assay buffer contained 0.01% Triton X-100 to prevent false positive inhibition due to aggregation of compounds[45], 5 mM cysteine, 1.5 mM EDTA and 0.1% PEG 8000. Enzymes were activated at 37 °C for 5 min before the assays.
(§2) Ki was determined by measuring the initial rate of hydrolysis at three different substrate concentrations (Supplementary Table S2) in the presence of seven different compound concentrations (0, 20, 40, 60, 80, 100 and 200 μM). 90 μL of the activated cathepsin was added to a black 96-well plate with 5 μL of the substrate and 5 μL of the compound. Formation of the fluorescent degradation product was monitored continuously at 460 nm ± 10 nm with excitation at 380 nm ± 20 nm (for AMC substrates) and, as noted above for Abz substrates, at 37 °C. All measurements were performed twice and in duplicate. The resulting data were analyzed by non-linear regression using the software SigmaPlot®, Enzyme Kinetics Module™ 1.3 and were fitted to the equation v = v max [S]/([S] (1 + [I]/αK i ) + K m (1 + [I]/K i )) (first group of compounds). For Ki determination against cathepsin X for the compounds from the second group, progress curves in the absence and presence of each putative inhibitor were fitted to the reaction mechanism presented in Fig. 3b. In this case the resulting data as well as reactivation curves were fitted to the equation system presented in Fig. 3c using ENZO application. For calculation of kinetic parameters from reaction progress curves the fluorescence coefficient for conversion of arbitrary fluorescence units to concentration was first determined. The fluorescence coefficient was calculated as the slope from the plot of initial substrate concentration vs. height of the plateau of the progress curve after complete hydrolysis of increasing concentrations of substrate, using linear regression.
(§3) Supplementary Table S2. Substrates used for the various cathepsins and their concentrations […]
(§4) Enzyme Substrate Concentration (µM) Reference/Company cathepsin X Abz-FEK(Dnp)-OH 3.25, 6.5, 13 Puzer et al.3 cathepsin B - endopept. Z-RR-AMC 60, 180, 360 Bachem cathepsin B - exopept. Abz-GIVRAK(Dnp)-OH 1, 3, 6 Bachem cathepsin S Z-VVR-AMC 0.5, 1, 1.5 Biomol cathepsin L Z-FR-AMC 0.5, 1, 4 Bachem cathepsin H Z-R-AMC 20, 80, 160 Biomol […]

[2] = biological target: T2, Cathepsin H (Homo sapiens, UniProt P09668); assay: Ki against cathepsin H (Z-R-AMC); assay type: biochemical; conditions: SigmaPlot at 3 different substrate concentrations; pH 6.8
T2 construct: native cathepsin H was isolated from human liver; from tissue; host or cells: human liver
T2 sequence (P09668 116-335 limits assumed, other chains not shown): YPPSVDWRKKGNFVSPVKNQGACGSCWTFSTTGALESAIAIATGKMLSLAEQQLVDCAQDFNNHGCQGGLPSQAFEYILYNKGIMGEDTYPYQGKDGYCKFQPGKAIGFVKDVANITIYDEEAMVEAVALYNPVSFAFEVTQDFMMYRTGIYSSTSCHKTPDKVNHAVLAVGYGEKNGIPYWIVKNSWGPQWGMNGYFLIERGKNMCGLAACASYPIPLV
Method: as §1, §2, §3, §4

[3] = biological target: T3, Cathepsin S (Homo sapiens, UniProt P25774); assay: Ki against cathepsin S (Z-VVR-AMC); assay type: biochemical; conditions: SigmaPlot at 3 different substrate concentrations; pH 6.5
T3 construct: made in house; host or cells: Pichia pastoris
T3 sequence (P25774 115-331): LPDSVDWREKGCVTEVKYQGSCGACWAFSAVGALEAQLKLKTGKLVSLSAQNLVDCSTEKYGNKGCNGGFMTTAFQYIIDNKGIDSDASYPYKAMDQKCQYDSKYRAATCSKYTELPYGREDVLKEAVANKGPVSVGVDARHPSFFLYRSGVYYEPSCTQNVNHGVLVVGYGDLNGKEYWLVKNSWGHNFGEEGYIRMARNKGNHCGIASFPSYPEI
Method: as §1, §2, §3, §4

[4] = test system: PC-12 cells; assay: Cytotoxicity assay (MTS) in PC-12 cells; assay type: cell-based, rat; conditions: up to 10 μM, 24 and 48 hours
Method: (§5) Human prostate cancer cell line PC-3 cells (obtained from ATCC, Manassas, USA; ATCC Number: CRL-1435) were cultured in F-12 (Gibco) and Advanced DMEM (Gibco) (1:1) with 10% FBS, 1% penicillin/streptomycin and 1% L-glutamine. Rat pheochromocytoma PC-12 cells (obtained from ATCC, Manassas, USA; ATCC Number: CRL-1721) were cultured in Advanced DMEM (Gibco) with 5% FBS, 10% heat-inactivated horse serum, 1% penicillin/streptomycin and 1% L-glutamine.
6.5 × 10^4 PC-3 cells/ml were seeded in a 96-well plate. PC-12 cells were seeded on poly-L-lysine (Sigma) coated plates in serum-free medium at a concentration of 4 × 10^4/well. Cells were treated with various concentrations of compounds (1, 2.5, 5 and 10 μM) for 24 or 48 hours. Cytotoxicity was determined with MTS reagent (CellTiter 96 Aqueous One Solution Cell Proliferation Assay, Promega) and A492 measured after 1 hour.

[5] = test system: PC-3 cells; assay: Real time cell migration assay (xCELLigence, CIM plates); assay type: cell-based, human
Method: as §5
Cell migration assay was performed on a Real-Time Cell Analyzer Dual Plate (RTCA DP) Instrument, xCELLigence System (ACEA Biosciences). CIM plates were coated with fibronectin (10 μg/ml, BD Biosciences) on the down and upper side of the microporous PET membrane for 30 min at room temperature and 2 hours at 37 °C, respectively. Excess fibronectin was removed and wells washed with phosphate buffer saline (PBS). Compounds (10 μM) were added to the complete media (lower chambers) or serum-free media (upper chambers). 0.1% DMSO was used as a control. 2 × 10^4 cells were plated per well. In additional experimental setting, inhibitors were added only to the upper chambers 3 hours after experiment started in order to measure their impact only on the cell migration and not the adhesion. Impedance data, reported as cell index, were measured continuously every 15 min for 72 hours and then analyzed with the RTCA Software (ACEA Biosciences, Inc.). Results are normalized to cells treated with DMSO.

[6] = biological target: T4, cathepsin X in PC-12 cell lysates (Rattus norvegicus, UniProt Q9R1T3); assay: Cathepsin X activity in PC-12 cell lysates; assay type: cell-based; conditions: 10 μM
T4 construct: endogenous in cells; host or cells: PC-12
T4 sequence (Q9R1T3 64-306): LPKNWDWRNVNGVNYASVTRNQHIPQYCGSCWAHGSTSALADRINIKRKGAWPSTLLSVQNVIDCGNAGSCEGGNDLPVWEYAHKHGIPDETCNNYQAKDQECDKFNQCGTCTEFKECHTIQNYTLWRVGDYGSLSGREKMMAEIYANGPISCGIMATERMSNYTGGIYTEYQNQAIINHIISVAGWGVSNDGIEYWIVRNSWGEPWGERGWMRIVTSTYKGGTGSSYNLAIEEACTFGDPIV
Method: To detect cathepsin X activity in cell lysates, 95 μL of activated cell lysates (0.2 mg/mL total protein in assay buffer) were added to a black 96-well plate containing 5 μL of the substrate. The further procedure was the same as above. In some experiments lysates of non-treated cells were pre-incubated with 10 μM of compounds for 30 minutes and then activity was measured as described above.
For testing the enzyme activity in cell lysates, cells were treated with 10 μM of compounds. After 24 hours lysates were prepared in 50 mM Na acetate buffer pH 5.5 with 1 mM EDTA, 100 mM NaCl and 0.25% Triton X-100. Total protein concentration was determined by DC Protein Assay (Bio Rad) according to the instructions.

[7] = biological target: cathepsin X (Homo sapiens, UniProt Q9UBR2); assay: Determination of Ki values and inhibition mechanism against cathepsin X (Abz-FEK(Dnp)-OH substrate); assay type: biochemical; set-up: made in house; host or cells: Pichia pastoris; conditions: second group
cathepsin X, sequence (Q9UBR2 62-303): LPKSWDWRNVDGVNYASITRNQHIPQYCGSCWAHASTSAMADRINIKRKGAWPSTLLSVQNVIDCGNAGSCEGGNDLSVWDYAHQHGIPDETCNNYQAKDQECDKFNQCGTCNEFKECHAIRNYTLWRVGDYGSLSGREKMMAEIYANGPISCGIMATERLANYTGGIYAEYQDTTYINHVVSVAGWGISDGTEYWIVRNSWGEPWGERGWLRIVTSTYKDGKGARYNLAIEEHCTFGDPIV
Method: as §1, §2, §3, §4

Ki [1]: 310 ± 68.3 µM
Ki [2]: > 1000 µM
Ki Cathepsin S [3]: n.i.
inhibition of cathepsin X activity in PC-12 cell lysates [6]: most potent
Inhibition mechanism ([7]; ENZO): competitive
Ki ([7]; progress curve analysis with ENZO): 2.45 ± 0.05 µM
SMILES: CC(C)n1cnnc1SCC(=O)c1ccc2c(c1)OCCO2 [Compound 22, 1-(2,3-Dihydrobenzo[b][1,4]dioxin-6-yl)-2-((4-isopropyl-4H-1,2,4-triazol-3-yl)thio)ethan-1-one]
cytotoxicity to PC-12 cells [4]: not cytotoxic
inhibition at 10 µM ([5]; Homo sapiens, PC-3, 10 μM, compound in upper and bottom compartments, vs DMSO): 15 to 30%
inhibition of PC-3 cell migration, alternative setting excluding adhesion ([5]; compound only in upper compartment, added 3 hours after seeding): inhibits migration
